Measured values: patent US10730872B2, “Pesticidally active heterocyclic derivatives with sulphur containing sustitutents” (SYNGENTA PARTICIPATIONS AG, priority 2015, dated 2020)

Columns and labels:
Assay type in all cases: in vivo
Diabrotica balteata = Diabrotica balteata (Corn Root Worm); conditions: 96 h, application rate of 200 ppm, sprayed maize sprouts, L2 larvae, 4 days after infestation, read-out: effect in at least one of the two categories (mortality or growth inhibition)
Protocol: Maize sprouts placed onto an agar layer in 24-well microtiter plates were treated with aqueous test solutions prepared from 10,000 ppm DMSO stock solutions by spraying. After drying, the plates were infested with L2 larvae (6 to 10 per well). The samples were assessed for mortality and growth inhibition in comparison to untreated samples 4 days after infestation.

Euschistus heros = Euschistus heros (Neotropical Brown Stink Bug); conditions: 120 h, application rate of 200 ppm, sprayed soybean leaves, N2 nymphs, 5 days after infestation, read-out: effect in at least one of the two categories (mortality or growth inhibition)
Protocol: Soybean leaves on agar in 24-well microtiter plates were sprayed with aqueous test solutions prepared from 10,000 ppm DMSO stock solutions. After drying the leaves were infested with N2 nymphs. The samples were assessed for mortality and growth inhibition in comparison to untreated samples 5 days after infestation.

Myzus persicae [1] = assay: Myzus persicae (Green Peach Aphid): Feeding/Contact Activity; conditions: foliar, 144 h, application rate of 200 ppm, sprayed sunflower leaf discs, aphid population of mixed ages, 6 days after infestation
Protocol: Sunflower leaf discs were placed onto agar in a 24-well microtiter plate and sprayed with aqueous test solutions prepared from 10,000 ppm DMSO stock solutions. After drying, the leaf discs were infested with an aphid population of mixed ages. The samples were assessed for mortality 6 days after infestation.

Myzus persicae [2] = assay: Myzus persicae (Green Peach Aphid). Systemic Activity; conditions: 144 h, test rate of 24 ppm, roots of infested pea seedlings in test solution, 6 days
Protocol: Roots of pea seedlings infested with an aphid population of mixed ages were placed directly into aqueous test solutions prepared from 10,000 DMSO stock solutions. The samples were assessed for mortality 6 days after placing seedlings into test solutions.

Plutella xylostella = Plutella xylostella (Diamond Back Moth); conditions: 120 h, application rate of 200 ppm, artificial diet, L2 larvae, 5 days after infestation, read-out: effect in at least one of the two categories (mortality or growth inhibition)
Protocol: 24-well microtiter plates with artificial diet were treated with aqueous test solutions prepared from 10,000 ppm DMSO stock solutions by pipetting. After drying, the plates were infested with L2 larvae (10 to 15 per well). The samples were assessed for mortality and growth inhibition in comparison to untreated samples 5 days after infestation.

Spodoptera littoralis [3] = assay: Spodoptera littoralis (Egyptian Cotton Leaf Worm), sprayed cotton leaf discs; conditions: foliar, 72 h, application rate of 200 ppm, L1 larvae, 3 days after infestation
Procedure, shortened: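 Cotton leaf discs on agar sprayed with aqueous dilutions of 10,000 ppm DMSO stocks, dried, then infested with five L1 larvae. Mortality, anti-feeding and growth inhibition scored against untreated discs 3 days after infestation. Control recorded when any one category exceeds the untreated sample.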

Spodoptera littoralis [4] = assay: Spodoptera littoralis (Egyptian Cotton Leaf Worm), uptake by lettuce roots from agar; conditions: 144 h, test rate of 12.5 ppm, mixed with agar, absorbed by lettuce roots, Spodoptera eggs, 6 days after infestation, read-out: effect in at least one of the three categories (mortality, anti-feeding, or growth inhibition)
From the text: Test compounds were applied by pipette from 10,000 ppm DMSO stock solutions into 24-well plates and mixed with agar. Lettuce seeds were placed onto the agar and the multi well plate was closed by another plate which contained also agar. After 7 days the compound was absorbed by the roots and the lettuce grew into the lid plate. The lettuce leaves were then cut off into the lid plate. Spodoptera eggs were pipetted through a plastic stencil onto a humid gel blotting paper and the lid plate was closed with it. The samples were assessed for mortality, anti-feedant effect and growth inhibition in comparison to untreated samples 6 days after infestation.

Tetranychus urticae = Tetranychus urticae (Two-Spotted Spider Mite): Feeding/Contact Activity; conditions: foliar, 192 h, application rate of 200 ppm, sprayed bean leaf discs, mixed population (mobile stages), 8 days after infestation
Protocol: Bean leaf discs on agar in 24-well microtiter plates were sprayed with aqueous test solutions prepared from 10,000 ppm DMSO stock solutions. After drying the leaf discs were infested with a mite population of mixed ages. The samples were assessed for mortality on mixed population (mobile stages) 8 days after infestation.

Aedes aegypti = assay: Aedes Aegypti (Yellow Fever Mosquito); conditions: 200 ppm in ethanol, dry deposit in 12 well plates, adult females, after 48 h and/or 24 h
Protocol: Test solutions, at an application rate of 200 ppm in ethanol, were applied to 12 well tissue culture plates. Once the deposits were dry, five, two to five day old adult female Aedes aegypti were added to each well, and sustained with a 10% sucrose solution in a cotton wool plug. Assessment of knockdown was made one hour after introduction, and mortality was assessed at 24 and 48 hours after introduction.

Bemisia tabaci = Bemisia tabaci (Cotton White Fly): Feeding/Contact Activity; conditions: foliar, 144 h, application rate of 200 ppm, sprayed cotton leaf discs, adult white flies, 6 days after incubation
Protocol: Cotton leaf discs were placed on agar in 24-well microtiter plates and sprayed with aqueous test solutions prepared from 10,000 ppm DMSO stock solutions. After drying the leaf discs were infested with adult white flies. The samples were checked for mortality 6 days after incubation.

[5] = tested on: Frankliniella occidentalis; assay: Frankliniella occidentalis (Western Flower Thrips): Feeding/Contact Activity; conditions: foliar, 168 h, application rate of 200 ppm, sprayed sunflower leaf discs, population of mixed ages, 7 days after infestation
Protocol: Sunflower leaf discs were placed on agar in 24-well microtiter plates and sprayed with aqueous test solutions prepared from 10,000 DMSO stock solutions. After drying the leaf discs were infested with a Frankliniella population of mixed ages. The samples were assessed for mortality 7 days after infestation.

CCS(=O)(=O)c1ccc(NC2CC2)nc1-c1nc2cc(C(F)(F)F)n(C)c(=O)c2n1C [Compound A2, 2-[6-(cyclopropylamino)-3-ethylsulfonyl-2-pyridyl]-3,5-dimethyl-6-(trifluoromethyl)imidazo[4,5-c]pyridin-4-one]
≥ 80%: effect mortality or growth inhibition at 200 ppm (Diabrotica balteata) | percent effect (mortality or growth inhibition) at 200 ppm (Euschistus heros) | mortality at 200 ppm (Myzus persicae [1]) | mortality at 24 ppm (Myzus persicae [2]) | percent effect (mortality or growth inhibition) at 200 ppm (Plutella xylostella) | percent control (mortality, anti-feeding effect or growth inhibition) at 200 ppm (Spodoptera littoralis [3]) | percent effect (mortality, anti-feeding or growth inhibition) at 12.5 ppm (Spodoptera littoralis [4]) | mortality at 200 ppm (Tetranychus urticae) | pest or weed control at 200 ppm (Aedes aegypti)

CCn1c(C(F)(F)F)cc2nc(-c3ncc(N)cc3S(=O)(=O)CC)n(C)c2c1=O [Compound A5, 2-(5-amino-3-ethylsulfonyl-2-pyridyl)-5-ethyl-3-methyl-6-(trifluoromethyl)imidazo[4,5-c]pyridin-4-one]
≥ 80%: effect mortality or growth inhibition at 200 ppm (Diabrotica balteata) | mortality at 200 ppm (Myzus persicae [1]) | percent effect (mortality or growth inhibition) at 200 ppm (Plutella xylostella) | percent control (mortality, anti-feeding effect or growth inhibition) at 200 ppm (Spodoptera littoralis [3]) | pest or weed control at 200 ppm (Aedes aegypti)

CCn1c(C(F)(F)F)cc2nc(-c3nc(N)ccc3S(=O)(=O)CC)n(C)c2c1=O [Compound A6, 2-(6-amino-3-ethylsulfonyl-2-pyridyl)-5-ethyl-3-methyl-6-(trifluoromethyl)imidazo[4,5-c]pyridin-4-one]
≥ 80%: mortality at 200 ppm (Bemisia tabaci) | effect mortality or growth inhibition at 200 ppm (Diabrotica balteata) | percent effect (mortality or growth inhibition) at 200 ppm (Euschistus heros) | mortality at 200 ppm (Myzus persicae [1]) | mortality at 24 ppm (Myzus persicae [2]) | percent effect (mortality or growth inhibition) at 200 ppm (Plutella xylostella) | percent control (mortality, anti-feeding effect or growth inhibition) at 200 ppm (Spodoptera littoralis [3]) | percent effect (mortality, anti-feeding or growth inhibition) at 12.5 ppm (Spodoptera littoralis [4]) | pest or weed control at 200 ppm (Aedes aegypti)

CCn1c(C(F)(F)F)cc2nc(-c3nc(NC(=O)C4CC4)ccc3S(=O)(=O)CC)n(C)c2c1=O [Compound A8, N-[6-[5-ethyl-3-methyl-4-oxo-6-(trifluoromethyl)imidazo[4,5-c]pyridin-2-yl]-5-ethylsulfonyl-2-pyridyl]cyclopropanecarboxamide]
≥ 80%: mortality at 200 ppm (Bemisia tabaci) | effect mortality or growth inhibition at 200 ppm (Diabrotica balteata) | percent effect (mortality or growth inhibition) at 200 ppm (Euschistus heros) | mortality at 200 ppm [5] | mortality at 200 ppm (Myzus persicae [1]) | percent effect (mortality or growth inhibition) at 200 ppm (Plutella xylostella) | percent control (mortality, anti-feeding effect or growth inhibition) at 200 ppm (Spodoptera littoralis [3]) | percent effect (mortality, anti-feeding or growth inhibition) at 12.5 ppm (Spodoptera littoralis [4])

CCn1c(C(F)(F)F)cc2nc(-c3nc(N(C)C4CC4)ccc3S(=O)(=O)CC)n(C)c2c1=O [Compound A12, 2-[6-[cyclopropyl(methyl)amino]-3-ethylsulfonyl-2-pyridyl]-5-ethyl-3-methyl-6-(trifluoromethyl)imidazo[4,5-c]pyridin-4-one]
≥ 80%: mortality at 200 ppm (Bemisia tabaci) | effect mortality or growth inhibition at 200 ppm (Diabrotica balteata) | percent effect (mortality or growth inhibition) at 200 ppm (Euschistus heros) | mortality at 200 ppm (Myzus persicae [1]) | percent effect (mortality or growth inhibition) at 200 ppm (Plutella xylostella) | percent control (mortality, anti-feeding effect or growth inhibition) at 200 ppm (Spodoptera littoralis [3]) | pest or weed control at 200 ppm (Aedes aegypti)

CCn1c(C(F)(F)F)cc2nc(-c3nc(NC4CC4)ccc3S(=O)(=O)CC)n(C)c2c1=O [Compound A30, 2-[6-(cyclopropylamino)-3-ethylsulfonyl-2-pyridyl]-5-ethyl-3-methyl-6-(trifluoromethyl)imidazo[4,5-c]pyridin-4-one]
≥ 80%: mortality at 200 ppm (Bemisia tabaci) | effect mortality or growth inhibition at 200 ppm (Diabrotica balteata) | percent effect (mortality or growth inhibition) at 200 ppm (Euschistus heros) | mortality at 200 ppm (Myzus persicae [1]) | mortality at 24 ppm (Myzus persicae [2]) | percent effect (mortality or growth inhibition) at 200 ppm (Plutella xylostella) | percent control (mortality, anti-feeding effect or growth inhibition) at 200 ppm (Spodoptera littoralis [3]) | mortality at 200 ppm (Tetranychus urticae) | pest or weed control at 200 ppm (Aedes aegypti)

CCn1c(C(F)(F)F)cc2nc(-c3nc(N)c(Cl)cc3S(=O)(=O)CC)n(C)c2c1=O [Compound A38, 2-(6-amino-5-chloro-3-ethylsulfonyl-2-pyridyl)-5-ethyl-3-methyl-6-(trifluoromethyl)imidazo[4,5-c]pyridin-4-one]
≥ 80%: mortality at 200 ppm (Bemisia tabaci) | effect mortality or growth inhibition at 200 ppm (Diabrotica balteata) | percent effect (mortality or growth inhibition) at 200 ppm (Euschistus heros) | mortality at 200 ppm (Myzus persicae [1]) | percent effect (mortality or growth inhibition) at 200 ppm (Plutella xylostella) | percent control (mortality, anti-feeding effect or growth inhibition) at 200 ppm (Spodoptera littoralis [3]) | percent effect (mortality, anti-feeding or growth inhibition) at 12.5 ppm (Spodoptera littoralis [4]) | pest or weed control at 200 ppm (Aedes aegypti)

CCn1c(C(F)(F)F)cc2nc(-c3nc(N)c(Br)cc3S(=O)(=O)CC)n(C)c2c1=O [Compound A39, 2-(6-amino-5-bromo-3-ethylsulfonyl-2-pyridyl)-5-ethyl-3-methyl-6-(trifluoromethyl)imidazo[4,5-c]pyridin-4-one]
≥ 80%: mortality at 200 ppm (Bemisia tabaci) | effect mortality or growth inhibition at 200 ppm (Diabrotica balteata) | percent effect (mortality or growth inhibition) at 200 ppm (Euschistus heros) | mortality at 200 ppm (Myzus persicae [1]) | percent effect (mortality or growth inhibition) at 200 ppm (Plutella xylostella) | percent control (mortality, anti-feeding effect or growth inhibition) at 200 ppm (Spodoptera littoralis [3]) | percent effect (mortality, anti-feeding or growth inhibition) at 12.5 ppm (Spodoptera littoralis [4]) | pest or weed control at 200 ppm (Aedes aegypti)

CCS(=O)(=O)c1ccc(N)nc1-c1nc2cc(C(F)(F)F)n(C3CC3)c(=O)c2n1C [Compound A42, 2-(6-amino-3-ethylsulfonyl-2-pyridyl)-5-cyclopropyl-3-methyl-6-(trifluoromethyl)imidazo[4,5-c]pyridin-4-one]
≥ 80%: mortality at 200 ppm (Bemisia tabaci) | effect mortality or growth inhibition at 200 ppm (Diabrotica balteata) | percent effect (mortality or growth inhibition) at 200 ppm (Euschistus heros) | mortality at 200 ppm (Myzus persicae [1]) | mortality at 24 ppm (Myzus persicae [2]) | percent effect (mortality or growth inhibition) at 200 ppm (Plutella xylostella) | percent control (mortality, anti-feeding effect or growth inhibition) at 200 ppm (Spodoptera littoralis [3]) | percent effect (mortality, anti-feeding or growth inhibition) at 12.5 ppm (Spodoptera littoralis [4]) | mortality at 200 ppm (Tetranychus urticae)

CCS(=O)(=O)c1cc(C#N)c(N)nc1-c1nc2cc(C(F)(F)F)n(C3CC3)c(=O)c2n1C [Compound A50, 2-(6-amino-5-cyano-3-ethylsulfonyl-2-pyridyl)-5-cyclopropyl-3-methyl-6-(trifluoromethyl)imidazo[4,5-c]pyridin-4-one]
≥ 80%: effect mortality or growth inhibition at 200 ppm (Diabrotica balteata) | percent effect (mortality or growth inhibition) at 200 ppm (Euschistus heros) | mortality at 200 ppm [5] | mortality at 200 ppm (Myzus persicae [1]) | mortality at 24 ppm (Myzus persicae [2]) | percent effect (mortality or growth inhibition) at 200 ppm (Plutella xylostella) | percent control (mortality, anti-feeding effect or growth inhibition) at 200 ppm (Spodoptera littoralis [3]) | percent effect (mortality, anti-feeding or growth inhibition) at 12.5 ppm (Spodoptera littoralis [4])

CCn1c(C(F)(F)F)cc2nc(-c3nc(NC(=O)OC(C)(C)C)ccc3S(=O)(=O)CC)n(C)c2c1=O [Compound A66, tert-butyl N-[6-[5-ethyl-3-methyl-4-oxo-6-(trifluoromethyl)imidazo[4,5-c]pyridin-2-yl]-5-ethylsulfonyl-2-pyridyl]carbamate]
≥ 80%: mortality at 200 ppm (Bemisia tabaci) | effect mortality or growth inhibition at 200 ppm (Diabrotica balteata) | percent effect (mortality or growth inhibition) at 200 ppm (Plutella xylostella) | percent control (mortality, anti-feeding effect or growth inhibition) at 200 ppm (Spodoptera littoralis [3]) | percent effect (mortality, anti-feeding or growth inhibition) at 12.5 ppm (Spodoptera littoralis [4]) | mortality at 200 ppm (Tetranychus urticae)
